Results on three compounds are retold here after article PMC4688937, “Heterologous expression of the isopimaric acid pathway in Nicotiana benthamiana and the effect of N-terminal modifications of the involved cytochrome P450 enzyme” (Journal of Biological Engineering, 2015).

One experiment has as its target T1, diTPS-ISO (Picea abies, UniProt Q675L5).
T1 construct: gene TPS-ISO; C-terminal FLAG tag, pEAQ-HT, transiently expressed in Nicotiana benthamiana leaves; own plastid targeting; 92 kDa
T1 sequence (Q675L5 69-867): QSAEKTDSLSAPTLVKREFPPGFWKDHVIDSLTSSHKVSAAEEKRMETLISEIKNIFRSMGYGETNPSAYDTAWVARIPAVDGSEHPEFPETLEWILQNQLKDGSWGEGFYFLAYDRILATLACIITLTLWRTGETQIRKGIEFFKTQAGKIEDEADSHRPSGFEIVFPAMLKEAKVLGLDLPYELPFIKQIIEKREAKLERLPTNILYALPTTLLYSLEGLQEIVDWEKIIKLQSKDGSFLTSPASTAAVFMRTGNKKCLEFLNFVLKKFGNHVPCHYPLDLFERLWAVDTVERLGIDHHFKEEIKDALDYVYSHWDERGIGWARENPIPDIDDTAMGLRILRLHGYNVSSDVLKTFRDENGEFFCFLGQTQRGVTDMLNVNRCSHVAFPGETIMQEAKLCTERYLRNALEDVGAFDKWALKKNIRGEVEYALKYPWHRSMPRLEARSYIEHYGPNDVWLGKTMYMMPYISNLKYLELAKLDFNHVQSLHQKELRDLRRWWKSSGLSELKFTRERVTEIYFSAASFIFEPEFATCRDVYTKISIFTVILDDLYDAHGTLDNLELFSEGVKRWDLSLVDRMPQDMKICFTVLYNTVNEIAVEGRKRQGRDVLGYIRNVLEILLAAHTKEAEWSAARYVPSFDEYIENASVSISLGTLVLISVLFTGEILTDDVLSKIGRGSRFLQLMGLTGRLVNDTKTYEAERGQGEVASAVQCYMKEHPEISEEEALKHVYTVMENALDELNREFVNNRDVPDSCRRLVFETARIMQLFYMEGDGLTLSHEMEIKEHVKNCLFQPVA
Kind of experiment: transient expression in N. benthamiana leaves, product by GC-MS. The note with it: endogenous GGPP in leaves, in planta; cyclisation to isopimaradiene.

Another experiment concerns the target T2, Barnes-CYP720B4 (Picea sitchensis, UniProt E5FA70, DEL3-9/V13A, form not given).
T2 construct: Barnes-modified N-terminus (text: residues 3-9 deleted, V13A); 54 kDa
Put plainly: co-expression with diTPS-ISO, DXS and GGPPs in N. benthamiana leaves, GC-FID and LC-MS. The settings on record: in planta, endogenous redox partner.

The next experiment has as its target T3, Tp-Barnes-CYP720B4 (Picea sitchensis, UniProt E5FA70, DEL3-9/V13A, form not given).
T3 construct: Barnes-modified N-terminus preceded by transit peptide (N-terminal 52 residues of Arabidopsis thaliana ferredoxin FedA, GenBank AY128936), partly processed; FLAG tag; chloroplast-targeted in Nicotiana benthamiana leaves; 60 kDa precursor
The experiment is described as above. The settings on record: in planta, chloroplast-targeted enzyme.

Another experiment addresses T4, CYP720B4 (Picea sitchensis, UniProt E5FA70).
T4 construct: ER; 55 kDa
Kind of experiment: co-expression with diTPS-ISO in N. benthamiana leaves, GC-MS and LC-MS. The note with it: in planta, endogenous redox partner.

A further experiment deals with T5, ΔTm-CYP720B4 (Picea sitchensis, UniProt E5FA70).
T5 construct: N-terminal membrane domain (first 37 amino acids) removed, new start Met from primer, FLAG tag, expressed in Nicotiana benthamiana leaves; 51 kDa
Put plainly: co-expression with diTPS-ISO, DXS and GGPPs in N. benthamiana leaves, GC-FID and LC-MS. The settings on record: in planta, endogenous redox partner.

T4 sequence (E5FA70 entry or part of it): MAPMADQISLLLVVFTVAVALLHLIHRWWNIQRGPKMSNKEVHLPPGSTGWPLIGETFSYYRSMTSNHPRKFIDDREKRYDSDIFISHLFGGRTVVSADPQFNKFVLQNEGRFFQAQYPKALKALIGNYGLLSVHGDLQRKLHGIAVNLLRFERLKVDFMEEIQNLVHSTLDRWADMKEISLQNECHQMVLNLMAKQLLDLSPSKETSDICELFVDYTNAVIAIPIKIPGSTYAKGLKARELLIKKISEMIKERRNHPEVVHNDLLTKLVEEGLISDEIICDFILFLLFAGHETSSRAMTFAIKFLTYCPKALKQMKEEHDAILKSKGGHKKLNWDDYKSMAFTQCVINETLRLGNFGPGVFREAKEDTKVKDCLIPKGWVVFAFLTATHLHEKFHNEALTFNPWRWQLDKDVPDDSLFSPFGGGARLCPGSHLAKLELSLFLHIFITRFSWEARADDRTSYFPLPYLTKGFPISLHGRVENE
T5 sequence (E5FA70 entry or part of it, stated change not applied): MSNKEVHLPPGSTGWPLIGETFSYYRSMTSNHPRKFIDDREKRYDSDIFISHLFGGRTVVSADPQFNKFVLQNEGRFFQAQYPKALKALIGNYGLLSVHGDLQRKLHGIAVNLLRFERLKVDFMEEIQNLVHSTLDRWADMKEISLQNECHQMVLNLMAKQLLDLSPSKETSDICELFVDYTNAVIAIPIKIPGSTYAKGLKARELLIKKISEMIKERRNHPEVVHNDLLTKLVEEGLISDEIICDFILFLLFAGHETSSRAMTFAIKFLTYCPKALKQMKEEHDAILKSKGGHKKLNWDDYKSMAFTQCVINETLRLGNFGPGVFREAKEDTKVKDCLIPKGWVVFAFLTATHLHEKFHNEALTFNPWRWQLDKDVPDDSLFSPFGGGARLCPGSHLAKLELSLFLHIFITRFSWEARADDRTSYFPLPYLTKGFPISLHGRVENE
T2 sequence (E5FA70 entry or part of it DEL3-9/V13A, form open): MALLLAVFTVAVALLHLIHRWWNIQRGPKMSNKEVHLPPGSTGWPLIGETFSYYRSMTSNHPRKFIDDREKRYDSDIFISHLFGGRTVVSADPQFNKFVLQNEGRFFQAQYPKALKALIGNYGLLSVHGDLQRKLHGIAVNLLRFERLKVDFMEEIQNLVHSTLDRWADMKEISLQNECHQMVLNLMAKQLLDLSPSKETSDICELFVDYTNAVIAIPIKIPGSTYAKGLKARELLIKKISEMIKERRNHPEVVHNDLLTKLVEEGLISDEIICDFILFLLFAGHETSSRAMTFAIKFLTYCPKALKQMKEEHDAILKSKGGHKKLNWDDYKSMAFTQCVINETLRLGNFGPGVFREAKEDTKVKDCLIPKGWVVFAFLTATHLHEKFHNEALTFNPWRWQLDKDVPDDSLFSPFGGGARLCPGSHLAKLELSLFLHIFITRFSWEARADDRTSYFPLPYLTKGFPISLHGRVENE
T3 sequence (E5FA70 entry or part of it DEL3-9/V13A, form open): as above

For `CC(C)=CCC/C(C)=C/CC/C(C)=C/CC/C(C)=C/COP(=O)(O)OP(=O)(O)O` [GGPP], the “transient expression in N. benthamiana leaves, product by GC-MS” value at diTPS-ISO is “The expressed diTPS-ISO is active as confirmed by the formation of isopimaradiene”.

In the case of `C=C[C@@]1(C)CC[C@H]2C(=CC[C@H]3C(C)(C)CCC[C@]23C)C1` [isopimaradiene], the “transient expression in N. benthamiana leaves, product by GC-MS” value on diTPS-ISO was “active as confirmed by the formation of isopimaradiene in the infiltrated leaves”. Also, the “co-expression with diTPS-ISO, DXS and GGPPs in N. benthamiana leaves, GC-FID and” value on Barnes-CYP720B4 is on record as “Barnes-CYP720B4 activity does not seem to deteriorate after the N-terminal modification”; at Tp-Barnes-CYP720B4 it was “In contrast, the Tp-Barnes-CYP720B4 was active”; at ΔTm-CYP720B4, “CYP720B4 remains active even after complete removal of the transmembrane domain”. The “co-expression with diTPS-ISO in N. benthamiana leaves, GC-MS and LC-MS” value on CYP720B4 was “Upon co-expression with CYP720B4, isopimaradiene was depleted and isopimaric acid accumulated”.

In the case of `C=C[C@@]1(C)CC[C@H]2C(=CC[C@@H]3[C@]2(C)CCC[C@@]3(C)C(=O)O)C1` [isopimaric acid], the “co-expression with diTPS-ISO in N. benthamiana leaves, GC-MS and LC-MS” value at CYP720B4 is “isopimaradiene was depleted and isopimaric acid accumulated (Fig. 2c, d), indicating efficient conversion”.
